Laboratory results as given in article PMC7179434, “1,2,4-Triazolo[1,5-a]pyrimidines as a Novel Class of Inhibitors of the HIV-1 Reverse Transcriptase-Associated Ribonuclease H Activity” (Molecules, 2020).
Like-named read-outs stand apart in the source and are kept apart here.

Legend:
HIV-1 RDDP = test system: HIV-1 RDDP; parameters: method as in ref 17-21, 27-29 (per compound as in Figure 1 legend); settings: known allosteric RNHIs; 27-29 (per compound as in Figure 1 legend); cited from earlier work
HIV-1 RNase H = target: HIV-1 RNase H; parameters: method as in ref 17-25, 27-29 (per compound as in Figure 1 legend); settings: known allosteric RNHIs; 27-29 (per compound as in Figure 1 legend); cited from earlier work
HIV-1 replication = settings: 28 (per compound as in Figure 1 legend); cited from earlier work
[1] = target: HIV-1 RT-associated RNase H (Human immunodeficiency virus type 1 group M subtype B, UniProt P03366); assay: biochemical; type: biochemical
HIV-1 RT-associated RDDP = HIV-1 RT-associated RDDP (Human immunodeficiency virus type 1 group M subtype B, UniProt P03366); assay: biochemical; type: biochemical
HIV-2 (ROD strain) = assay: Anti-HIV-2 activity in acutely infected MT-4 cells (MTT); type: cell-based
HIV-1 (IIIB strain) = type: cell-based; settings: acutely infected MT-4 cells
[2] = wt RT, average and standard deviation of three independent experiments in duplicate

Compound	IC50 [1] [µM]	IC50 (HIV-1 RT-associated RDDP) [µM]	melting point [°C]	further results
O=C(O)c1ccc(-c2cccc(/C=N/NC(=O)c3ccc(O)c(O)c3)c2)cc1 [Compound 2]	–	–	–	IC50 (HIV-1 RDDP): > 50 µM; IC50 (HIV-1 RNase H): 0.4 µM
O=C1Nc2ccccc2/C1=N\Nc1nc(-c2ccc(O)c(O)c2)cs1 [Compound 3]	–	–	–	IC50 (HIV-1 RDDP): 1.4 µM; IC50 (HIV-1 RNase H): 2 µM; EC50 (HIV-1 replication) (HIV-1 replication): not active
N#Cc1ccc(-c2csc(N/N=C3/C(=O)Nc4ccccc43)n2)cc1 [Compound 4]	–	–	–	IC50 (HIV-1 RDDP): 9.8 µM; IC50 (HIV-1 RNase H): 1.3 µM
Cc1sc2nc(-c3ccc([N+](=O)[O-])cc3)[nH]c(=O)c2c1C [Compound 6]	–	–	–	IC50 (HIV-1 RNase H): 0.85 µM
O=C(Nc1sc2c(c1C(=O)Nc1ccccn1)CCCCC2)c1ccc(O)c(O)c1 [Compound 8]	–	–	–	IC50 (HIV-1 RDDP): 20.9 µM; IC50 (HIV-1 RNase H): 0.84 µM; EC50 (HIV-1 replication) (HIV-1 replication): not active
O=c1oc(-c2ccc(O)c(O)c2)nc2sc3ccccc3c12 [Compound 9]	–	–	–	IC50 (HIV-1 RDDP): 2.9 µM; IC50 (HIV-1 RNase H): 0.53 µM; EC50 (HIV-1 replication) (HIV-1 replication): not active
CCCCCCCC/C=C\CCCCCCCCNC(=O)/C=C/c1ccc(O)c(O)c1 [Compound 10]	–	–	–	IC50 (HIV-1 RDDP): 2.3 µM; IC50 (HIV-1 RNase H): 0.68 µM
CCCCOc1ccc(C(=O)Nc2nc3n(n2)C(c2ccccc2)C=C(C)N3)cc1 (centres unmarked) [Compound 11a]	17.7 ± 2.7	> 100	–	–
CCCCc1ccc(C(=O)Nc2nc3n(n2)C(c2ccccc2)C=C(C)N3)cc1 (centres unmarked) [Compound 11b]	13.1 ± 2.2	> 100	–	anti-HIV-2 (ROD strain) activity (HIV-2 (ROD strain)): none of the compounds having RNase H inhibition showed anti-HIV activity at concentrations lower than those cytotoxic; anti-HIV-1 (IIIB strain) activity (HIV-1 (IIIB strain)): none of the compounds having RNase H inhibition showed anti-HIV activity at concentrations lower than those cytotoxic
CCCCc1ccc(C(=O)Nc2nc3nc(C)cc(-c4ccccc4)n3n2)cc1 [Compound 12b, 4-Butyl-N-(5-methyl-7-phenyl-[1,2,4]triazolo[1,5-a]pyrimidin-2-yl)benzamide]	12.3 ± 1.5	> 100	157 to 158	–
Cc1cc(-c2ccccc2)n2nc(NC(=O)c3ccccc3F)nc2n1 [Compound 12c, 2-Fluoro-N-(5-methyl-7-phenyl[1,2,4]triazolo[1,5-a]pyrimidin-2-yl)benzamide]	> 100	> 100	292 to 302	–
Cc1cc(-c2ccccc2)n2nc(NC(=O)c3ccc([N+](=O)[O-])cc3)nc2n1 [Compound 12d, N-(5-Methyl-7-phenyl-[1,2,4]triazolo[1,5-a]pyrimidin-2-yl)-4-nitrobenzamide]	> 100	> 100	290 to 293	–
Cc1cc(-c2ccccc2)n2nc(NC(=O)c3ccc(N)cc3)nc2n1 [Compound 12e, 4-Amino-N-(5-methyl-7-phenyl-[1,2,4]triazolo[1,5-a]pyrimidin-2-yl)benzamide]	> 100	> 100	179 to 202	–
COc1ccc(C(=O)Nc2nc3nc(C)cc(-c4ccccc4)n3n2)cc1OC [Compound 12f, 3,4-Dimethoxy-N-(5-methyl-7-phenyl-[1,2,4]triazolo[1,5-a]pyrimidin-2-yl)benzamide]	> 100	> 100	131 to 151	–
Cc1cc(-c2ccccc2)nc2nc(NC(=O)c3ccccc3F)nn12 [Compound 13c, 2-Fluoro-N-(7-methyl-5-phenyl-[1,2,4]triazolo[1,5-a]pyrimidin-2-yl)benzamide]	> 100	> 100	165 to 169	–
Cc1cc(-c2ccccc2)nc2nc(NC(=O)c3ccc([N+](=O)[O-])cc3)nn12 [Compound 13d, N-(7-Methyl-5-phenyl-[1,2,4]triazolo[1,5-a]pyrimidin-2-yl)-4-nitrobenzamide]	60.1 ± 3.3	> 100	316 to 318	–
Cc1cc(-c2ccccc2)nc2nc(NC(=O)c3ccc(N)cc3)nn12 [Compound 13e, 4-Amino-N-(7-methyl-5-phenyl-[1,2,4]triazolo[1,5-a]pyrimidin-2-yl)benzamide]	> 100	> 100	318 to 319	–
COc1ccc(C(=O)Nc2nc3nc(-c4ccccc4)cc(C)n3n2)cc1OC [Compound 13f, 3,4-Dimethoxy-N-(7-methyl-5-phenyl-[1,2,4]triazolo[1,5-a]pyrimidin-2-yl)benzamide]	> 100	> 100	175 to 179	–
CCCCc1ccc(C(=O)Nc2nc3nc(C)cc(C)n3n2)cc1 [Compound 14b, 4-Butyl-N-(5,7-dimethyl-[1,2,4]triazolo[1,5-a]pyrimidin-2-yl)benzamide]	> 100	–	175 to 177	HIV-1 RNaseH IC50 [1, 2]: complete loss of activity
Cc1cc(C)n2nc(NC(=O)c3ccccc3F)nc2n1 [Compound 14c, N-(5,7-Dimethyl-[1,2,4]triazolo[1,5-a]pyrimidin-2-yl)-2-fluorobenzamide]	> 100	> 100	195 to 200	–
Cc1cc(C)n2nc(NC(=O)c3ccc([N+](=O)[O-])cc3)nc2n1 [Compound 14d, N-(5,7-Dimethyl-[1,2,4]triazolo[1,5-a]pyrimidin-2-yl)-4-nitrobenzamide]	> 100	> 100	273 to 276	–
Cc1cc(C)n2nc(NC(=O)c3ccc(N)cc3)nc2n1 [Compound 14e, 4-Amino-N-(5,7-dimethyl-[1,2,4]triazolo[1,5-a]pyrimidin-2-yl)benzamide]	> 100	> 100	248 to 258	–
COc1ccc(C(=O)Nc2nc3nc(C)cc(C)n3n2)cc1OC [Compound 14f, N-(5,7-Dimethyl-[1,2,4]triazolo[1,5-a]pyrimidin-2-yl)-3,4-dimethoxybenzamide]	> 100	> 100	190 to 194	–
Cc1cc(C)n2nc(NC(=O)c3ccc(O)c(O)c3)nc2n1 [Compound 14g, N-(5,7-Dimethyl-[1,2,4]triazolo[1,5-a]pyrimidin-2-yl)-3,4-dihydroxybenzamide]	6.23 ± 0.01	> 100	299 to 301	–
COc1ccc(-c2cc(C)nc3nc(N(C(=O)c4ccccc4)C(=O)c4ccccc4)nn23)cc1OC [Compound 16hh, N-benzoyl-N-(7-(3,4-dimethoxyphenyl)-5-methyl-[1,2,4]triazolo[1,5-a]pyrimidin-2-yl)benzamide]	6.74 ± 0.55	> 100	–	HIV-1 RNaseH IC50 [1, 2]: low micromolar range
Cc1cc(-c2ccccc2)nc2nc(C(=O)Nc3ccc(O)c(O)c3)nn12 [Compound 19g, N-(3,4-Dihydroxyphenyl)-7-methyl-5-phenyl-[1,2,4]triazolo[1,5-a]pyrimidine-2-carboxamide]	43.1 ± 2.1	–	247 to 250	HIV-1 RNaseH IC50 [1, 2]: markedly decreased anti-RNase H activity
CCOC(=O)C(=O)CC(=O)C=Cc1cccn1Cc1ccc(F)cc1 [RDS1643, reference compound]	–	–	–	IC50 ([1]; wt RT, average and standard deviation of three independent experiments in duplicate, read-out: HIV-1 RNaseH IC50): 9 ± 2 µM
